Measurements published in article PMC8151276, “An Integrated Approach toward NanoBRET Tracers for Analysis of GPCR Ligand Engagement” (Molecules, 2021).

What was measured:
NPY2R = biological target: T1, NPY2R (Homo sapiens, UniProt P49146); test: NanoBRET screen HiBiT-NPY2R in HEK293; assay type: binding; conditions: NPY2R
T1 construct: purchased Promega (in-house HiBiT-GPCR construct library, NanoBRET)
T1 sequence (P49146 1-381): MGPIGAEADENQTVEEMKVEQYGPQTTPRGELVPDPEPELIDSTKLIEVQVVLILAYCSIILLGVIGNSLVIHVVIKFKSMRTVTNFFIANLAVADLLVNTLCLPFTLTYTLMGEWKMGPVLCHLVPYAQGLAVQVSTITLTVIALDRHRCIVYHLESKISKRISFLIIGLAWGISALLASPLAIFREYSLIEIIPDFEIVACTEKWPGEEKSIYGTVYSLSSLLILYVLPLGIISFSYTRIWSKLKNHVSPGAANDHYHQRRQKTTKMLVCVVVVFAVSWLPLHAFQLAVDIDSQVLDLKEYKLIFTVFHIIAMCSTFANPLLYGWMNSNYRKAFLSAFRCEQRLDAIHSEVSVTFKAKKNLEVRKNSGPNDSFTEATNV
Description: (§1) Each tracer candidate was screened across the entire library of HiBiT-GPCR constructs using NanoBRET as the detection modality. As depicted in Figure 4A, the specificity of interactions was evaluated through decrease in BRET due to competitive displacement of a bound tracer by excess parental compound. Each tracer was analyzed for binding to each HiBiT-GPCR fusion in the absence and in the presence of competing parental compound. Briefly, HEK293 cells were transfected with HiBiT-GPCR constructs diluted into promoterless DNA to reduce expression and maximize translocation to the cell surface. Each tracer candidate was then screened at concentrations of 1 μM and 0.1 μM across cells expressing these fusions. Cells were treated for 1.5 h with tracer either alone or in the presence of 20 μM competing parental compound (i.e., control). BRET was measured upon addition of purified LgBiT and subsequent complementation with HiBiT genetically fused to a GPCR. The specificity of interactions was assessed through a decrease in BRET signal due to competitive displacement of the bound tracer. To further gauge the robustness of these interactions, the fold response over the control (i.e., BRETtracer/BRETcontrol) was calculated. We chose a 1.5-fold response, which translates to ≥7-fold signal over noise as the minimal threshold required to score an interaction as positive. […]. Below we highlight the screening results obtained for our exemplary fluorescent tracers based on Clozapine, Amitriptyline and AZD1283.
(§2) HiBiT-GPCR DNA constructs were diluted in 10 mM Tris pH 8 to a final concentration of 0.01 μg/μL, arrayed in 96-well plates and stored at −20 °C. For transfection, HEK293 cells were suspended in Opti-MEM (without phenol red) supplemented with 2% fetal bovine serum (Seradigm) and 100 units/mL penicillin–streptomycin (Gibco) at a final concentration of 220,000 cells/mL and dispensed into white 96-well plates at 90 μL/well. Subsequent transfections and screens were carried using an Agilent Bravo Automated Liquid Handling Platform. First, the 96-well HiBiT DNA arrays were diluted 25-fold in Opti-MEM (without serum or phenol red) to a final concentration of 0.0004 μg/μL and 20 μL of the diluted DNAs were transferred into new 96-well plates. Next, promoterless carrier DNA (1 μg/μL) was diluted 25-fold (0.04 μg/μL) and then dispensed into the diluted arrays at 20 μL/well. Following brief mixing, Viafect transfection reagent (Promega) diluted 16-fold into Opti-MEM was dispensed into the plates at 40 μL/well. After mixing by pipetting, plates were incubated for 10 min on the pipetting station deck. The DNA-transfection reagent complexes were then added to plates containing cells. To facilitate the screen, 10 μL of DNA-transfection reagent complexes were added in duplicates to the top 4 and bottom 4 rows, resulting in two identical 48-well arrays per plate. Plates with transfected cells were incubated for 18–20 h at 37 °C/5% CO2. A screen of each tracer across the entire library using two different concentrations requires duplicate plates of transfected cells. Depending on the number of tracers being screened, transfections can be scaled up using the same ratios. The next day, for each tracer, four 20× screening solutions in tracer dilution buffer (Promega) were prepared: two duplicates at final concentration of 20 μM and two duplicates at a final concentration of 2 μM. A competing unmodified compound was added to one of each duplicate at a final concentration of 400 μM. The four resulting solutions were diluted 4-fold in Opti-MEM without serum or phenol red to generate 5× solutions (5 µM and 0.5 µM tracer +/− 100 μM competing compound). To screen the library, a BioTek MultiFlo FX liquid dispenser was used to dispense 22.5 µL of tracer solution to the top 4 rows and 22.5 µL tracer + competing compound solution to the 4 bottom rows. Plates were briefly mixed on an orbital shaker and incubated for 1.5 h at room temperature. […]

ADRA2C = biological target: T2, ADRA2C (Homo sapiens, UniProt P18825); test: NanoBRET screen HiBiT-ADRA2C in HEK293; assay type: binding; conditions: ADRA2C
T2 construct: purchased Promega (in-house HiBiT-GPCR construct library, NanoBRET)
T2 sequence (P18825 1-462): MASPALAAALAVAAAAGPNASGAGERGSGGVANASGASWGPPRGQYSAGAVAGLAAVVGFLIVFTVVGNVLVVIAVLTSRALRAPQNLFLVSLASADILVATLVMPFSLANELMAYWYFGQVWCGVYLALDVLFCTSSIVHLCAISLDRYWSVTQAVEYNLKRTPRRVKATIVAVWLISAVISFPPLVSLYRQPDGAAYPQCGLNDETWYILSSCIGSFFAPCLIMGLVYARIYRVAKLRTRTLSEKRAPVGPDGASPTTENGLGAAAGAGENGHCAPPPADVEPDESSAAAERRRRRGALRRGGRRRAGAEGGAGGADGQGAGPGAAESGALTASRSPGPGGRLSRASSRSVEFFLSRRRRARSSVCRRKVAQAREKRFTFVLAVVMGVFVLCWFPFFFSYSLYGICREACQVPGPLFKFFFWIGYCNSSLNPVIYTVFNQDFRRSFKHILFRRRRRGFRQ
Description: as §1, §2

Structure (SMILES) | NanoBRET Fold Response (NPY2R; tracer 0.1μM) | NanoBRET Fold Response (NPY2R; tracer 1μM) | NanoBRET Fold Response (ADRA2C; tracer 0.1μM) | NanoBRET Fold Response (ADRA2C; tracer 1μM)
Cc1nc2n(c(=O)c1CCN1CCC(c3noc4cc(F)ccc34)CC1)CCCC2OC(=O)NCCOCCOCCOCCOCCNC(=O)CCc1ccc2n1[B-](F)(F)[N+]1=C(c3ccc[nH]3)C=CC1=C2 (stereo not shown) [Risperidone-2-NB590] | 1.07 | 0.98 | 1.59 | 1.37
CC(C)N(CC[C@H](c1ccccc1)c1cc(CCNC(=O)CCOCCOCCOCCOCCNC(=O)CCc2ccc3n2[B-](F)(F)[N+]2=C(c4ccc[nH]4)C=CC2=C3)ccc1O)C(C)C [Tolterodine-2-NB590] | 1.01 | 0.93 | 0.85 | 1.04
CC(C)N(CC[C@H](c1ccccc1)c1cc(CCNC(=O)c2ccc(CNC(=O)CCc3ccc4n3[B-](F)(F)[N+]3=C(c5ccc[nH]5)C=CC3=C4)cc2)ccc1O)C(C)C [Tolterodine-BZ-NB590] | 0.90 | 1.04 | 1.09 | 1.11
CCCn1c(=O)c2[nH]c(-c3ccc(OCC(=O)NCCNC(=O)CCOCCNC(=O)c4ccc(CNC(=O)CCc5ccc6n5[B-](F)(F)[N+]5=C(c7ccc[nH]7)C=CC5=C6)cc4)cc3)nc2n(CCC)c1=O [XAC-3-NB590] | 0.93 | 1.03 | 0.77 | 1.20
